# ± gives the standard deviation of the averaged measurements.
# Columns and labels:
# SPR = SPR (UniProt P35270); assay: pIC50, competition of probe 3 labelling in live cells; settings: cell material: Jurkat cells
# CDK10 = CDK10 (UniProt Q15131); assay: pIC50, kinobeads binding competition; settings: cell material: Jurkat lysate
# TRRAP = TRRAP (UniProt Q9Y4A5); assay: pIC50, kinobeads binding competition; settings: cell material: Jurkat lysate
# PDIK1L = PDIK1L (UniProt Q8N165); assay: pIC50, kinobeads binding competition; settings: cell material: Jurkat lysate
# MASTL = molecular target: T1, MASTL (UniProt Q96GX5); assay: pIC50, kinobeads binding competition; settings: cell material: Jurkat lysate
# T1 sequence (whole entry): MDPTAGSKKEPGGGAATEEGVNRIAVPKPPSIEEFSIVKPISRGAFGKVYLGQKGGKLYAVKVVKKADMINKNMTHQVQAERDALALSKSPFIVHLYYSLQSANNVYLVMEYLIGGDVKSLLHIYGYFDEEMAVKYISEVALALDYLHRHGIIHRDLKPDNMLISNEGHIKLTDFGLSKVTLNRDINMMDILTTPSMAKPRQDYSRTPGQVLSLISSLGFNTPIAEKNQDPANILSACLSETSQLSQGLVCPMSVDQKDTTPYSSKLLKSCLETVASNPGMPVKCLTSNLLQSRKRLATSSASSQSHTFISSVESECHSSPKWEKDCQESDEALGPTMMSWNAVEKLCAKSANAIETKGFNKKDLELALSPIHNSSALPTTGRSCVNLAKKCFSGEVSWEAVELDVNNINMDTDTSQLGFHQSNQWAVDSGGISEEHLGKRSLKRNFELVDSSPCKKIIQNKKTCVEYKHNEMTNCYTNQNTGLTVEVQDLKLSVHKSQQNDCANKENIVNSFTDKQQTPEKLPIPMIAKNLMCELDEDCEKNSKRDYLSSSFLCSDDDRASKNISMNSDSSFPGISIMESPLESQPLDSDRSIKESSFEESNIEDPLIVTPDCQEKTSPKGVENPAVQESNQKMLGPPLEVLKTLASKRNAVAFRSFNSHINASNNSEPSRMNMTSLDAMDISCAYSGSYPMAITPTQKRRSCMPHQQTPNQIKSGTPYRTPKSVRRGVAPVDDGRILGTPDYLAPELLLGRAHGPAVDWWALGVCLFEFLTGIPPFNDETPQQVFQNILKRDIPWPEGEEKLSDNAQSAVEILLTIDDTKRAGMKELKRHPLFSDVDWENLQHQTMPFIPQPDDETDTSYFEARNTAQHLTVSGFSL
# MAPKAPK3 = MAPKAPK3 (UniProt Q16644); assay: pIC50, kinobeads binding competition; settings: cell material: Jurkat lysate
# MAST4 = MAST4 (UniProt O15021); assay: pIC50, kinobeads binding competition; settings: cell material: Jurkat lysate
# PBK = molecular target: T2, PBK (UniProt Q96KB5); assay: pIC50, kinobeads binding competition; settings: cell material: Jurkat lysate
# T2 sequence (whole entry): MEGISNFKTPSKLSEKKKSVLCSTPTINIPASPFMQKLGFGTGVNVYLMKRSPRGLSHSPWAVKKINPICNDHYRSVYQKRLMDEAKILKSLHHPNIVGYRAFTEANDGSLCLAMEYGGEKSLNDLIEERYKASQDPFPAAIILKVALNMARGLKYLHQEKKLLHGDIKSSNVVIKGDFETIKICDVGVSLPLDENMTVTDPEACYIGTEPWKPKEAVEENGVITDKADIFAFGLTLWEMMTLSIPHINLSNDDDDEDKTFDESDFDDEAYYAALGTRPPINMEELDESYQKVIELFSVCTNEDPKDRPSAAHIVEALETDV
# KSR1 = molecular target: T3, KSR1 (UniProt Q8IVT5); assay: pIC50, kinobeads binding competition; settings: cell material: Jurkat lysate
# T3 sequence (whole entry): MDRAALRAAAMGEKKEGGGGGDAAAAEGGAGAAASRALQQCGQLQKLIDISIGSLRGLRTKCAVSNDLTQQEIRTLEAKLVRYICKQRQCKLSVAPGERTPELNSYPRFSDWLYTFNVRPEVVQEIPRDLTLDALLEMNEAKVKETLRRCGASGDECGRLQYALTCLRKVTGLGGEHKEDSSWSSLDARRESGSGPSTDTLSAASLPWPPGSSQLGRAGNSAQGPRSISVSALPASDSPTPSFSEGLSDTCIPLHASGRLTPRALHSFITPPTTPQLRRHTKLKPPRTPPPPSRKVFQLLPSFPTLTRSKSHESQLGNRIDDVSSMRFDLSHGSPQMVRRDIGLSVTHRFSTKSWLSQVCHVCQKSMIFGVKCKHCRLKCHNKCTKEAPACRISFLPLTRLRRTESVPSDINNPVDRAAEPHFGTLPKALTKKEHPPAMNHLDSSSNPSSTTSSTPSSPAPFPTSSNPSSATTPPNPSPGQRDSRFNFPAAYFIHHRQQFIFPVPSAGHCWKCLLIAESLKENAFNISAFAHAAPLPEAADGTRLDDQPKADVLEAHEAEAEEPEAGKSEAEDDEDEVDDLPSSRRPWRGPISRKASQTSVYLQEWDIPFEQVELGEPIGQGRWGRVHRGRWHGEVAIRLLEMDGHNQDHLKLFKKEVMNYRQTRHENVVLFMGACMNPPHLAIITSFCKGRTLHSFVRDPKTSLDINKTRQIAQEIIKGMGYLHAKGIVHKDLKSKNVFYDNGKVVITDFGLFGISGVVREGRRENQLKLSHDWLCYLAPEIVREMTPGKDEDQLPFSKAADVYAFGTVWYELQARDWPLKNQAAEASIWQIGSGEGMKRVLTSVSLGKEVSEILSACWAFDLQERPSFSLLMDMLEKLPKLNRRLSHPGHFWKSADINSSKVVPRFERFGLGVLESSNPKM
# MAST3 = MAST3 (UniProt O60307); assay: pIC50, kinobeads binding competition; settings: cell material: Jurkat lysate
# UniProt Q5TCX8 = assay: pIC50, kinobeads binding competition; settings: cell material: Jurkat lysate
# PIP4K2A = molecular target: T4, PIP4K2A (UniProt P48426); assay: pIC50, kinobeads binding competition; settings: cell material: Jurkat lysate
# T4 sequence (whole entry): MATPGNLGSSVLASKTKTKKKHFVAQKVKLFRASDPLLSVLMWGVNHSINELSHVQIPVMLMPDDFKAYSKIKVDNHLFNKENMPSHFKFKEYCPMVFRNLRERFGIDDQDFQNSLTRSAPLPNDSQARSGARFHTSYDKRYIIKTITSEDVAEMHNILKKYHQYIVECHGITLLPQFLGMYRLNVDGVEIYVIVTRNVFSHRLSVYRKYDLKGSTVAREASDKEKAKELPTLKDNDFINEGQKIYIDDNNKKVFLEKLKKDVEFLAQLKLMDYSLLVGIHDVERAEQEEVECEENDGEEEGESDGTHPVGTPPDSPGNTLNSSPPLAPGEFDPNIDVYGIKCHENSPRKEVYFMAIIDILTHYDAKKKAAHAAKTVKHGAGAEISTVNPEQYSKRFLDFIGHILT
# PIK3R4 = PIK3R4 (UniProt Q99570); assay: pIC50, kinobeads binding competition; settings: cell material: Jurkat lysate
# PIK3R4, sequence (Q99570 whole entry): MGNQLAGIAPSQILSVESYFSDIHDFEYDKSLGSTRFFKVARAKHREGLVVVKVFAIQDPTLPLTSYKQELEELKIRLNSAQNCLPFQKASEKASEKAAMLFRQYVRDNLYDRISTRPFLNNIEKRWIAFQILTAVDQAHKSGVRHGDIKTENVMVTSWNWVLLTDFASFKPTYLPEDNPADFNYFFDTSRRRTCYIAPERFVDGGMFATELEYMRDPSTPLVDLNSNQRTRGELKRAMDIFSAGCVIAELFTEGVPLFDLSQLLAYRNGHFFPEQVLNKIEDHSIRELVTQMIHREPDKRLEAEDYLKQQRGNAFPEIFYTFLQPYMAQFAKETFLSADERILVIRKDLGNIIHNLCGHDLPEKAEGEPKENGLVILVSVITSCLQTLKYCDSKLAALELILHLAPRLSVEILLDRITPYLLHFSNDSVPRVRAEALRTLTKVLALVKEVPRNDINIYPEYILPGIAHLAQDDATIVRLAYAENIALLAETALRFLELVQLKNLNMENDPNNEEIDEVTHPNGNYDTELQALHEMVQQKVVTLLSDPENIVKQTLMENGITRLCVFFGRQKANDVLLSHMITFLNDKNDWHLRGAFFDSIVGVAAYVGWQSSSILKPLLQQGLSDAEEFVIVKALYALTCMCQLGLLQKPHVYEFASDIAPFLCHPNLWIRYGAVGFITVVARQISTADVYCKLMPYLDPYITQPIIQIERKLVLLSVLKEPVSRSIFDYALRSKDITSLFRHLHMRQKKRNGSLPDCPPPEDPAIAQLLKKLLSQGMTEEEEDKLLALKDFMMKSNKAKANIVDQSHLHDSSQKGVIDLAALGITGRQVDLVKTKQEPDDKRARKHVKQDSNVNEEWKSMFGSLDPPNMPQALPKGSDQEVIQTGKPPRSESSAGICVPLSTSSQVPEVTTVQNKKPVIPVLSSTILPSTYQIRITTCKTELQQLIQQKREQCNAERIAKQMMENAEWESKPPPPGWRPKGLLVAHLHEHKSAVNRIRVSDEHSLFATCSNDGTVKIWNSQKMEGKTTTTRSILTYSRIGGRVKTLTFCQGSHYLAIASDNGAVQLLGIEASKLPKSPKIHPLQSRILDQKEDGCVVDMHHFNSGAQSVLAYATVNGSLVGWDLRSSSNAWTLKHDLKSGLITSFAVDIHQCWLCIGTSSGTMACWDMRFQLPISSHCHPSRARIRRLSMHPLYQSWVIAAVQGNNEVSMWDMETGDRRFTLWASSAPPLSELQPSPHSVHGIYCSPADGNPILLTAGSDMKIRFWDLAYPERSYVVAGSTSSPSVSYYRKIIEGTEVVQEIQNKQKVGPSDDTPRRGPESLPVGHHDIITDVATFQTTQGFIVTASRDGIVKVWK
# CDK10, sequence (Q15131 whole entry): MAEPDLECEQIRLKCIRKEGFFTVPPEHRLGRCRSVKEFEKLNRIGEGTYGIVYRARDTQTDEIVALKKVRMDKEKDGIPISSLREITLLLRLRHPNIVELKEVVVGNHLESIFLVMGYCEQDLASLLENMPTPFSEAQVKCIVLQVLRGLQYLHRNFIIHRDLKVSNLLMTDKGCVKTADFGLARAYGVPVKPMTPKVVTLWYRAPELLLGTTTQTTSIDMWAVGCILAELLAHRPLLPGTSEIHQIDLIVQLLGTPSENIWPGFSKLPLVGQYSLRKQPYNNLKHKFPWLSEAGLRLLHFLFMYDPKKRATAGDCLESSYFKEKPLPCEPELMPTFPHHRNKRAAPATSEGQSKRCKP
# MAPKAPK3, sequence (Q16644 whole entry, looked up): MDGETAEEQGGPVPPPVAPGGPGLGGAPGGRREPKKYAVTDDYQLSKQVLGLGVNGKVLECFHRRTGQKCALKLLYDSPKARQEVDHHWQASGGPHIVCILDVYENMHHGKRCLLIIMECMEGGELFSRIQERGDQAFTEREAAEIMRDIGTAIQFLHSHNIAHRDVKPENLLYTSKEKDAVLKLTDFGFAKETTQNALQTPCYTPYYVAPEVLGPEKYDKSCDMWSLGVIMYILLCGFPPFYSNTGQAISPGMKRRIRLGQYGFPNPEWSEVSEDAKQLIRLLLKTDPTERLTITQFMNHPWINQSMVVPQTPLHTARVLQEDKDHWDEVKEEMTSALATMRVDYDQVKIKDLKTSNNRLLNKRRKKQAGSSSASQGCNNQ
# SPR, sequence (P35270 whole entry, looked up): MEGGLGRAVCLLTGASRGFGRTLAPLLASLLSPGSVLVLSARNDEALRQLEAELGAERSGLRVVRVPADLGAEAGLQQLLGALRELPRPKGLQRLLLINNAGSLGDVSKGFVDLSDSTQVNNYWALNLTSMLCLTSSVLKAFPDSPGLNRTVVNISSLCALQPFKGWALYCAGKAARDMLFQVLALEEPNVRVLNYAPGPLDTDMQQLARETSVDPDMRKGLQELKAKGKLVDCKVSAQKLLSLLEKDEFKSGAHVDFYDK
# UniProt Q5TCX8, sequence (Q5TCX8 whole entry): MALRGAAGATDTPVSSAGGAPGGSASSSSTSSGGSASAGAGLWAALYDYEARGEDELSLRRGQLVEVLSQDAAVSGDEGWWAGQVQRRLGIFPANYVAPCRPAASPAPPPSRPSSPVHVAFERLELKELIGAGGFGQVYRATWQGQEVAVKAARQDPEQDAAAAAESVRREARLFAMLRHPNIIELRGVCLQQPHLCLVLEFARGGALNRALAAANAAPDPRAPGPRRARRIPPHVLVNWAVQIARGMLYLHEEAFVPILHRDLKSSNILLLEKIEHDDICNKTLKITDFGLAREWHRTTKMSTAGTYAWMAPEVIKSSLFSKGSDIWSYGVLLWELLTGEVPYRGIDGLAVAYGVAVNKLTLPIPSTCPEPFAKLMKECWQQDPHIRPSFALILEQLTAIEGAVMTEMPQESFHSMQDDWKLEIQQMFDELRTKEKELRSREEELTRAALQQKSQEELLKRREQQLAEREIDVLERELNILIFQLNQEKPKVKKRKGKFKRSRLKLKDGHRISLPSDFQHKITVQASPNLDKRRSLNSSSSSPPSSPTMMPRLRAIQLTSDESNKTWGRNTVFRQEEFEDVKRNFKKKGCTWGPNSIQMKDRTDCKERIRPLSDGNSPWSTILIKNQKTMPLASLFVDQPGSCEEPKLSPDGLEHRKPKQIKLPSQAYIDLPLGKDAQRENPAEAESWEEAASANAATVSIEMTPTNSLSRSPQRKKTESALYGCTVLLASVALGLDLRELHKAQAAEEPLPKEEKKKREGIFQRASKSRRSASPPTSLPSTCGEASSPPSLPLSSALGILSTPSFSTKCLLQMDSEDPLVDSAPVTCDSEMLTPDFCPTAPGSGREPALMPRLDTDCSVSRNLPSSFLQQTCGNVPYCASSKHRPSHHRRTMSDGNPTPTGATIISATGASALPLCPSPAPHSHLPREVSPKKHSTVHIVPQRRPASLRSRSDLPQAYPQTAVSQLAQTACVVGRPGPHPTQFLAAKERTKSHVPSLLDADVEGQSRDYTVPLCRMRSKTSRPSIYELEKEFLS
# PDIK1L, sequence (Q8N165 whole entry): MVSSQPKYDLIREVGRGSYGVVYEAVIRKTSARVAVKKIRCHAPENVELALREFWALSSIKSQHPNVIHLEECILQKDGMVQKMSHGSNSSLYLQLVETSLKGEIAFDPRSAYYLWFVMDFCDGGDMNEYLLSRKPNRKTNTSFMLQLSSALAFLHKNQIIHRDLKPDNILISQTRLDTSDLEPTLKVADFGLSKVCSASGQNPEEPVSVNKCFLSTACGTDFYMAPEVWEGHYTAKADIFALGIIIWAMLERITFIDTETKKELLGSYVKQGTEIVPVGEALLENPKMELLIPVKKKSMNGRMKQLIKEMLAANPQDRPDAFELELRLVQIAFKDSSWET
# MAST3, sequence (O60307 whole entry): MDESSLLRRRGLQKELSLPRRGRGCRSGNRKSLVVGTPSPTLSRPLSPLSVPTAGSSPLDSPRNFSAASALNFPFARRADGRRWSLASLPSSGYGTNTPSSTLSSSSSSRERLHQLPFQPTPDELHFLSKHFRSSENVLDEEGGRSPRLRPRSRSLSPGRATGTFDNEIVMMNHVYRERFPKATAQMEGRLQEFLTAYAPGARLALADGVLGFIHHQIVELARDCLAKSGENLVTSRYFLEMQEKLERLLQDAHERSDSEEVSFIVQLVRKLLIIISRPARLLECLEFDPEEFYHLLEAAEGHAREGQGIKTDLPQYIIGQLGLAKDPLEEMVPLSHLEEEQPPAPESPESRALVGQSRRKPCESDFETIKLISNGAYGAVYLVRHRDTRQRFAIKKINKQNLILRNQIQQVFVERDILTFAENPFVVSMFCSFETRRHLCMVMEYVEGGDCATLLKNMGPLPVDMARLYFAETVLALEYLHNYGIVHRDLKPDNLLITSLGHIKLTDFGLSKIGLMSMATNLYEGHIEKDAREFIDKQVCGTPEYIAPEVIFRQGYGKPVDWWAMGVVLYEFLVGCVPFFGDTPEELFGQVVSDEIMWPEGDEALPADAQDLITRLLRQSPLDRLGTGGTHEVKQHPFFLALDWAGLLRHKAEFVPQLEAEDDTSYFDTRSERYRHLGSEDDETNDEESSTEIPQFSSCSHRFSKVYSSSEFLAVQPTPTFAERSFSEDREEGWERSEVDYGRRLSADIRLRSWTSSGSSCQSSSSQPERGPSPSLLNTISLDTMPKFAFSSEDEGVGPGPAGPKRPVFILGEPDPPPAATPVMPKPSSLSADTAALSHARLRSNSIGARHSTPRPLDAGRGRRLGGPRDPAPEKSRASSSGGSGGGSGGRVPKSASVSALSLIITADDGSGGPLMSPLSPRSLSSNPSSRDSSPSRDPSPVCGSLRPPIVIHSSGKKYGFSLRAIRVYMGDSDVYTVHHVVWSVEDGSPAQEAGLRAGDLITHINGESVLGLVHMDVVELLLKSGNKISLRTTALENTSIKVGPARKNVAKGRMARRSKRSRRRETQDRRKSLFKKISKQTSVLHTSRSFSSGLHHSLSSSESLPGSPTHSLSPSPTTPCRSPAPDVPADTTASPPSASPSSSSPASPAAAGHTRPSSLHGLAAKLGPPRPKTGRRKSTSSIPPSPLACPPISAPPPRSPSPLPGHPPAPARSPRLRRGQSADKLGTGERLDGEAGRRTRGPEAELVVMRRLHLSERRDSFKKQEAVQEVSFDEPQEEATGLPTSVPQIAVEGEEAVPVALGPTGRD
pIC50 (SPR),pIC50 (CDK10),pIC50 (TRRAP),pIC50 (PDIK1L),pIC50 (MASTL),pIC50 (MAPKAPK3),pIC50 (MAST4),pIC50 (PBK),pIC50 (KSR1),pIC50 (MAST3),pIC50 (UniProt Q5TCX8),pIC50 (PIP4K2A),pIC50 (PIK3R4),SMILES
7.61 ± 0.34,,,,,,,,,,,,,Cc1c(C(=O)N2CCN(CC(F)(F)F)CC2)cnn1-c1nn2cccc2c(=O)[nH]1 [QM385]
,< 4.52,< 4.52,4.89 ± 0.099,< 4.52,6.74,< 4.52,< 4.52,4.72,< 4.52,< 4.52,< 4.52,< 4.52,Cc1nc(Nc2ncc(C(=O)Nc3c(C)cccc3Cl)s2)cc(N2CCN(CCO)CC2)n1 [dasatinib]

# Reference: the supplement of paper PMC12076712
